pEC50: −log10 of the molar value. Where two headings read alike, the source gives them in different places.
Key:
Type in all cases: cell-based
GLP-1R [1] = target: T1, GLP-1R (Homo sapiens, UniProt P43220); test: PathHunter β-arrestin assay
Procedure, shortened: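 Overnight-plated cells; 0.2% BSA medium; agonist 22-pt 2× dilution series, duplicate; 90 min, 37 °C/5% CO2; detection reagent 3 h RT, dark; luminescence.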

GLP-1R [2] = target: T1, GLP-1R; test: HitHunter cAMP assay (GLP-1R); conditions: cAMP; for Emax: read-out: (Emax) GLP-1R
Procedure, shortened: (§1)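 Luminescent readout of cAMP by enzyme-fragment immunocompetition gave agonist concentration-response data. Cells (10,000/well) sat in HBSS buffer containing IBMX 625 μM, HEPES 10 mM and BSA 0.2%, exposed to agonist for 30 min at room temperature.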

GIP-R = target: T2, GIP-R (Homo sapiens, UniProt P48546); test: HitHunter cAMP assay (GIP-R); conditions: cAMP; for Emax: read-out: (Emax) GIP-R
T2 sequence (P48546 22-466): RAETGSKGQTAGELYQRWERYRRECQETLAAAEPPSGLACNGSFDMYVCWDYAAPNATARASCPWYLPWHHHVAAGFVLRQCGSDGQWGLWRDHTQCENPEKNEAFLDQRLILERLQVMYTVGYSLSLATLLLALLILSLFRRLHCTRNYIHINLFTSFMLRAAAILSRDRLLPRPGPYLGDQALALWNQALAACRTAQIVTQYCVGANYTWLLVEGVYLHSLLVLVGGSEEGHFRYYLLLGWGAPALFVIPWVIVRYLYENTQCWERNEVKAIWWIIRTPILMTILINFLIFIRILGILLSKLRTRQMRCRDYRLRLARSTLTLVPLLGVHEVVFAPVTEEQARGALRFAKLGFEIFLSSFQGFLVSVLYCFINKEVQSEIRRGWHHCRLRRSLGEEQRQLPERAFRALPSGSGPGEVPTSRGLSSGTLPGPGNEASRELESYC
Procedure, shortened: as §1

[3] = PathHunter β-arrestin assay, read-out: β-arrestin activity EC50
[4] = Table 3A, read-out: EC50 GLP-1R/nM
[5] = Table 3A, read-out: EC50 GIP-R/nM

T1 sequence (P43220 24-463): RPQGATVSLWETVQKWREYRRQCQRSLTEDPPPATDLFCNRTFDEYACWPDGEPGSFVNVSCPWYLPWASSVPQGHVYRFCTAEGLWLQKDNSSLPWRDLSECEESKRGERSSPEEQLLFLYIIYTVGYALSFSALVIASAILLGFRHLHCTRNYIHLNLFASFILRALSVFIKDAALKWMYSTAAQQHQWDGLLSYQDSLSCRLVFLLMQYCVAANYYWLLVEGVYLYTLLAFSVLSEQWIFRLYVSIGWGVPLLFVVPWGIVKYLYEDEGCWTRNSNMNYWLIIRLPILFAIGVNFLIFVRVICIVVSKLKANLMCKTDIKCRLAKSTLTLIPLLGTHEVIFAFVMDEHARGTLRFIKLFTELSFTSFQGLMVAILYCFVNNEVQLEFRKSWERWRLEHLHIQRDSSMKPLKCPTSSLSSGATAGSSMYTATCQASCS

Compound: CCCCCCCCCCCCCCCC(=O)N[C@@H](CCC(=O)NCCCC[C@H](NC(=O)[C@H](CO)NC(=O)[C@@H]1CCCN1C(=O)[C@@H]1CCCN1C(=O)[C@@H]1CCCN1C(=O)[C@H](C)NC(=O)CNC(=O)[C@H](CO)NC(=O)[C@H](CO)NC(=O)[C@@H]1CCCN1C(=O)CNC(=O)CNC(=O)[C@H](C)NC(=O)[C@H](CC(C)C)NC(=O)[C@H](CC(C)C)NC(=O)[C@H](Cc1c[nH]c2ccccc12)NC(=O)[C@H](CC(N)=O)NC(=O)[C@@H](NC(=O)[C@H](Cc1ccccc1)NC(=O)[C@H](CCC(=O)O)NC(=O)C(C)(C)NC(=O)[C@H](C)NC(=O)[C@H](C)NC(=O)[C@H](CCC(N)=O)NC(=O)[C@H](CCCCN)NC(=O)[C@H](CC(=O)O)NC(=O)[C@H](CC(C)C)NC(=O)[C@H](Cc1ccc(O)cc1)NC(=O)[C@@H](NC(=O)[C@H](CO)NC(=O)[C@H](Cc1ccc(O)cc1)NC(=O)[C@H](CC(=O)O)NC(=O)[C@H](CO)NC(=O)[C@@H](NC(=O)[C@H](Cc1ccccc1)NC(=O)[C@@H](NC(=O)CNC(=O)[C@H](CCC(=O)O)NC(=O)C(C)(C)NC(=O)CCN1CCCCC1=O)[C@@H](C)O)[C@@H](C)O)[C@@H](C)CC)C(C)C)C(N)=O)C(=O)O [Compound 210]
- pEC50 (GLP-1R [1]; [3]): 6.00 to 8.00
- Emax (GLP-1R [2]; Table 3A): 90%
- EC50 (GLP-1R [2]; [4]): < 0.1 nM
- Emax (GIP-R; Table 3A): 40%
- EC50 (GIP-R; [5]): 10 to 100 nM

Compound: CC[C@H](C)[C@H](NC(=O)[C@H](CO)NC(=O)[C@H](Cc1ccc(O)cc1)NC(=O)[C@H](CC(=O)O)NC(=O)[C@H](CO)NC(=O)[C@@H](NC(=O)[C@H](Cc1ccccc1)NC(=O)[C@@H](NC(=O)CNC(=O)[C@H](CCC(=O)O)NC(=O)CSCC(=O)NCCN1C(=O)c2ccc(C)cc2C1=O)[C@@H](C)O)[C@@H](C)O)C(=O)N[C@@H](Cc1ccc(O)cc1)C(=O)N[C@@H](CC(C)C)C(=O)N[C@@H](CC(=O)O)C(=O)N[C@@H](CCCCN)C(=O)N[C@@H](CCC(N)=O)C(=O)N[C@@H](C)C(=O)N[C@@H](C)C(=O)NC(C)(C)C(=O)N[C@@H](CCC(=O)O)C(=O)N[C@@H](Cc1ccccc1)C(=O)N[C@H](C(=O)N[C@@H](CC(N)=O)C(=O)N[C@@H](Cc1c[nH]c2ccccc12)C(=O)N[C@@H](CC(C)C)C(=O)N[C@@H](CC(C)C)C(=O)N[C@@H](C)C(=O)NCC(=O)NCC(=O)N1CCC[C@H]1C(=O)N[C@@H](CO)C(=O)N[C@@H](CO)C(=O)NCC(=O)N[C@@H](C)C(=O)N1CCC[C@H]1C(=O)N1CCC[C@H]1C(=O)N1CCC[C@H]1C(=O)N[C@@H](CO)C(=O)N[C@@H](CCCCN)C(N)=O)C(C)C [Compound 156]
- pEC50 (GLP-1R [1]): < 6.00
- EC50 (GLP-1R [2]; EC50 GLP-1R/nM, Table 3): 1 to 10 nM
- EC50 (GLP-1R [2]; EC50 GLP-1R/nM, Table 3A): 1 to 10 nM
- Emax (GLP-1R [2]; Table 3): 95 to 100%
- Emax (GLP-1R [2]; Table 3A): 95 to 100%
- EC50 (GIP-R; EC50 GIP-R/nM, Table 3): < 0.1 nM
- EC50 (GIP-R; EC50 GIP-R/nM, Table 3A): < 0.1 nM
- Emax (GIP-R; Table 3): 116 to 118%
- Emax (GIP-R; Table 3A): 116 to 118%

Compound: CCCCCCCCCCCCCCCC(=O)N[C@@H](CCC(=O)NCCCC[C@H](NC(=O)[C@H](CO)NC(=O)[C@@H]1CCCN1C(=O)[C@@H]1CCCN1C(=O)[C@@H]1CCCN1C(=O)[C@H](C)NC(=O)CNC(=O)[C@H](CO)NC(=O)[C@H](CO)NC(=O)[C@@H]1CCCN1C(=O)CNC(=O)CNC(=O)[C@H](C)NC(=O)[C@H](CC(C)C)NC(=O)[C@H](CC(C)C)NC(=O)[C@H](Cc1c[nH]c2ccccc12)NC(=O)[C@H](CC(N)=O)NC(=O)[C@@H](NC(=O)[C@H](Cc1ccccc1)NC(=O)[C@H](CCC(=O)O)NC(=O)C(C)(C)NC(=O)[C@H](C)NC(=O)[C@H](C)NC(=O)[C@H](CCC(N)=O)NC(=O)[C@H](CCCCN)NC(=O)[C@H](CC(=O)O)NC(=O)[C@H](CC(C)C)NC(=O)[C@H](Cc1ccc(O)cc1)NC(=O)[C@@H](NC(=O)[C@H](CO)NC(=O)[C@H](Cc1ccc(O)cc1)NC(=O)[C@H](CC(=O)O)NC(=O)[C@H](CO)NC(=O)[C@@H](NC(=O)[C@H](Cc1ccccc1)NC(=O)[C@@H](NC(=O)CNC(=O)[C@H](CCC(=O)O)NC(=O)CN(C)C(=O)CCN1CCCCC1=O)[C@@H](C)O)[C@@H](C)O)[C@@H](C)CC)C(C)C)C(N)=O)C(=O)O [Compound 206]
- pEC50 (GLP-1R [1]; [3]): < 6.00
- EC50 (GLP-1R [2]; [4]): < 0.1 nM
- Emax (GIP-R; Table 3A): 18%
- EC50 (GIP-R; [5]): 100 to 1000 nM

Compound: CC[C@H](C)[C@H](NC(=O)[C@H](CO)NC(=O)[C@H](Cc1ccc(O)cc1)NC(=O)[C@H](CC(=O)O)NC(=O)[C@H](CO)NC(=O)[C@@H](NC(=O)[C@H](Cc1ccccc1)NC(=O)[C@@H](NC(=O)CNC(=O)[C@H](CCC(=O)O)NC(=O)CN1C(=O)CSC1=O)[C@@H](C)O)[C@@H](C)O)C(=O)N[C@@H](Cc1ccc(O)cc1)C(=O)N[C@@H](CC(C)C)C(=O)N[C@@H](CC(=O)O)C(=O)N[C@@H](CCCCN)C(=O)N[C@@H](CCC(N)=O)C(=O)N[C@@H](C)C(=O)N[C@@H](C)C(=O)NC(C)(C)C(=O)N[C@@H](CCC(=O)O)C(=O)N[C@@H](Cc1ccccc1)C(=O)N[C@H](C(=O)N[C@@H](CC(N)=O)C(=O)N[C@@H](Cc1c[nH]c2ccccc12)C(=O)N[C@@H](CC(C)C)C(=O)N[C@@H](CC(C)C)C(=O)N[C@@H](C)C(=O)NCC(=O)NCC(=O)N1CCC[C@H]1C(=O)N[C@@H](CO)C(=O)N[C@@H](CO)C(=O)NCC(=O)N[C@@H](C)C(=O)N1CCC[C@H]1C(=O)N1CCC[C@H]1C(=O)N1CCC[C@H]1C(=O)N[C@@H](CO)C(=O)N[C@@H](CCCCN)C(N)=O)C(C)C [Compound 185]
- pEC50 (GLP-1R [1]; [3]): < 6.00
- Emax (GLP-1R [2]; Table 3): 97%
- EC50 (GLP-1R [2]; Table 3, read-out: EC50 GLP-1R/nM): 0.1 to 1 nM
- Emax (GLP-1R [2]; Table 3A): 97%
- EC50 (GLP-1R [2]; [4]): 0.1 to 1 nM
- EC50 (GIP-R; Table 3, read-out: EC50 GIP-R/nM): > 1000 nM
- EC50 (GIP-R; [5]): > 1000 nM
- Emax at 1 µM (GIP-R; read-out: (Emax) GIP-R at 1 μM, Table 3, at 1 μM): 8.6%

Compound: CC[C@H](C)[C@H](NC(=O)[C@H](CO)NC(=O)[C@H](Cc1ccc(O)cc1)NC(=O)[C@H](CC(=O)O)NC(=O)[C@H](CO)NC(=O)[C@@H](NC(=O)[C@H](Cc1ccccc1)NC(=O)[C@@H](NC(=O)CNC(=O)[C@H](CCC(=O)O)NC(=O)CCC(=O)NCCN1C(=O)c2ccccc2C1=O)[C@@H](C)O)[C@@H](C)O)C(=O)N[C@@H](Cc1ccc(O)cc1)C(=O)N[C@@H](CC(C)C)C(=O)N[C@@H](CC(=O)O)C(=O)N[C@@H](CCCCN)C(=O)N[C@@H](CCC(N)=O)C(=O)N[C@@H](C)C(=O)N[C@@H](C)C(=O)NC(C)(C)C(=O)N[C@@H](CCC(=O)O)C(=O)N[C@@H](Cc1ccccc1)C(=O)N[C@H](C(=O)N[C@@H](CC(N)=O)C(=O)N[C@@H](Cc1c[nH]c2ccccc12)C(=O)N[C@@H](CC(C)C)C(=O)N[C@@H](CC(C)C)C(=O)N[C@@H](C)C(=O)NCC(=O)NCC(=O)N1CCC[C@H]1C(=O)N[C@@H](CO)C(=O)N[C@@H](CO)C(=O)NCC(=O)N[C@@H](C)C(=O)N1CCC[C@H]1C(=O)N1CCC[C@H]1C(=O)N1CCC[C@H]1C(=O)N[C@@H](CO)C(=O)N[C@@H](CCCCN)C(N)=O)C(C)C [Compound 187]
- pEC50 (GLP-1R [1]): < 6.00
- EC50 (GLP-1R [2]; EC50 GLP-1R/nM, Table 3): 10 to 100 nM
- EC50 (GLP-1R [2]; EC50 GLP-1R/nM, Table 3A): 10 to 100 nM
- Emax (GLP-1R [2]; Table 3): 89%
- Emax (GLP-1R [2]; Table 3A): 89%
- EC50 (GIP-R; EC50 GIP-R/nM, Table 3): 10 to 100 nM
- EC50 (GIP-R; EC50 GIP-R/nM, Table 3A): 10 to 100 nM
- Emax (GIP-R; Table 3): 58%
- Emax (GIP-R; Table 3A): 58%

Compound: CCCCCCCCCCCCCCCC(=O)N[C@@H](CCC(=O)NCCCC[C@H](NC(=O)[C@H](CO)NC(=O)[C@@H]1CCCN1C(=O)[C@@H]1CCCN1C(=O)[C@@H]1CCCN1C(=O)[C@H](C)NC(=O)CNC(=O)[C@H](CO)NC(=O)[C@H](CO)NC(=O)[C@@H]1CCCN1C(=O)CNC(=O)CNC(=O)[C@H](C)NC(=O)[C@H](CC(C)C)NC(=O)[C@H](CC(C)C)NC(=O)[C@H](Cc1c[nH]c2ccccc12)NC(=O)[C@H](CC(N)=O)NC(=O)[C@@H](NC(=O)[C@H](Cc1ccccc1)NC(=O)[C@H](CCC(=O)O)NC(=O)C(C)(C)NC(=O)[C@H](C)NC(=O)[C@H](C)NC(=O)[C@H](CCC(N)=O)NC(=O)[C@H](CCCCN)NC(=O)[C@H](CC(=O)O)NC(=O)[C@H](CC(C)C)NC(=O)[C@H](Cc1ccc(O)cc1)NC(=O)[C@@H](NC(=O)[C@H](CO)NC(=O)[C@H](Cc1ccc(O)cc1)NC(=O)[C@H](CC(=O)O)NC(=O)[C@H](CO)NC(=O)[C@@H](NC(=O)[C@H](Cc1ccccc1)NC(=O)[C@@H](NC(=O)CNC(=O)[C@H](CCC(=O)O)NC(=O)CSCC(=O)NCCN1C(=O)SC(C)(C)C1=O)[C@@H](C)O)[C@@H](C)O)[C@@H](C)CC)C(C)C)C(N)=O)C(=O)O [Compound 94]
- pEC50 (GLP-1R [1]): < 6.00
- EC50 (GLP-1R [2]; EC50 GLP-1R/nM, Table 3): 1 to 10 nM
- EC50 (GLP-1R [2]; EC50 GLP-1R/nM, Table 3A): 1 to 10 nM
- Emax (GLP-1R [2]; Table 3): 89%
- Emax (GLP-1R [2]; Table 3A): 89%
- EC50 (GIP-R; EC50 GIP-R/nM, Table 3): 1 to 10 nM
- EC50 (GIP-R; EC50 GIP-R/nM, Table 3A): 1 to 10 nM
- Emax (GIP-R; Table 3): 46%
- Emax (GIP-R; Table 3A): 46%
